# Assay results published in the supplement of paper PMC10307832.
# Tests used:
# Test in all cases: relative viability (nuclei count vs DMSO), 5 days (fraction); higher = more cells survive
# XMD14-99 + Tozasertib = compound: CN1CCN(CC1)C2=CC(=C(C=C2)NC3=NC(=C(S3)C(=O)C4=C(C=CC=C4Cl)Cl)N)OC [XMD14-99] + Cc1cc(Nc2cc(N3CCN(C)CC3)nc(Sc3ccc(NC(=O)C4CC4)cc3)n2)n[nH]1 [Tozasertib] (partner 0.1 µM)
# Outline: (§1)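 Nuclei were stained with Hoechst during a one-step fixation (final 0.05% Triton X-100, 1% formaldehyde, 1 ug/ml Hoechst) carried out 5 days after dosing, then counted on 4× images. The cells, lung cancer lines in 1536-well plates, had been dosed by pin tool the day after seeding with one drug alone or a fixed anchor-drug dose plus five library-drug doses (not always all listed) in √10 steps. Relative viability is the nuclei count in treated wells divided by that in vehicle wells, and each value is the median of duplicate plates.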
# XMD14-99 + AZD7762 = compound: CN1CCN(CC1)C2=CC(=C(C=C2)NC3=NC(=C(S3)C(=O)C4=C(C=CC=C4Cl)Cl)N)OC [XMD14-99] + NC(=O)Nc1cc(-c2cccc(F)c2)sc1C(=O)N[C@H]1CCCNC1 [AZD7762] (partner 0.2 µM)
# Outline: as §1
# XMD14-99 + Pemetrexed = compound: CN1CCN(CC1)C2=CC(=C(C=C2)NC3=NC(=C(S3)C(=O)C4=C(C=CC=C4Cl)Cl)N)OC [XMD14-99] + Nc1nc2[nH]cc(CCc3ccc(C(=O)N[C@@H](CCC(=O)O)C(=O)O)cc3)c2c(=O)[nH]1 [Pemetrexed] (partner 0.2 µM)
# Outline: as §1
# AZD1208 + Phenformin = compound: N[C@@H]1CCCN(c2c(/C=C3\SC(=O)NC3=O)cccc2-c2ccccc2)C1 [AZD1208] + N=C(N)NC(=N)NCCc1ccccc1 [Phenformin] (partner 250 µM)
# Outline: as §1
Cell Line,relative viability (XMD14-99 + Tozasertib; first compound 0.08 µM),relative viability (XMD14-99 + Tozasertib; first compound 0.8 µM),relative viability (XMD14-99 + Tozasertib; first compound 2.53 µM),relative viability (XMD14-99 + Tozasertib; first compound 8 µM),relative viability (XMD14-99 + AZD7762; first compound 0.08 µM),relative viability (XMD14-99 + AZD7762; first compound 0.8 µM),relative viability (XMD14-99 + AZD7762; first compound 2.53 µM),relative viability (XMD14-99 + AZD7762; first compound 8 µM),relative viability (XMD14-99 + Pemetrexed; first compound 0.08 µM),relative viability (XMD14-99 + Pemetrexed; first compound 0.8 µM),relative viability (XMD14-99 + Pemetrexed; first compound 2.53 µM),relative viability (XMD14-99 + Pemetrexed; first compound 8 µM),relative viability (AZD1208 + Phenformin; first compound 0.08 µM),relative viability (AZD1208 + Phenformin; first compound 0.253 µM),relative viability (AZD1208 + Phenformin; first compound 0.8 µM),relative viability (AZD1208 + Phenformin; first compound 2.53 µM),relative viability (AZD1208 + Phenformin; first compound 8 µM)
NCI-H1793,0.329,0.377,0.34,0.28,0.512,0.298,0.389,0.298,0.947,1,0.83,0.631,0.314,0.453,0.342,0.307,0.274
NCI-H1915,0.423,0.42,0.428,0.386,0.668,0.676,0.701,0.629,0.472,0.475,0.431,0.426,0.366,0.402,0.372,0.348,0.352
NCI-H1944,0.226,0.256,0.255,0.235,0.501,0.539,0.436,0.328,0.595,0.605,0.602,0.481,0.197,0.201,0.179,0.172,0.136
NCI-H1975,0.693,0.733,0.656,0.281,0.743,0.745,0.717,0.569,0.293,0.307,0.333,0.283,0.413,0.449,0.393,0.404,0.359
NCI-H1993,0.602,0.68,0.549,0.571,0.879,0.702,0.82,0.593,0.708,0.541,0.524,0.448,0.538,0.468,0.522,0.471,0.488
NCI-H2085,0.752,0.779,0.716,0.464,0.95,0.914,0.881,0.72,0.9,0.899,0.839,0.65,0.679,0.677,0.675,0.688,0.668
NCI-H2087,0.225,0.253,0.228,0.169,1.26,1.14,1.04,0.764,0.681,0.644,0.597,0.611,0.46,0.554,0.41,0.481,0.336
NCI-H2126,0.811,0.806,0.791,0.693,0.979,0.984,1.05,0.942,0.634,0.681,0.677,0.537,0.506,0.507,0.493,0.545,0.466
NCI-H2170,0.702,0.667,0.696,0.575,0.787,0.928,0.875,0.702,0.247,0.266,0.251,0.247,0.458,0.385,0.444,0.438,0.447
NCI-H2342,0.483,0.628,0.591,0.516,0.55,0.502,0.583,0.458,0.785,0.748,0.815,0.762,0.563,0.585,0.52,0.569,0.462
NCI-H2347,0.555,0.641,0.442,0.405,0.814,0.725,0.673,0.505,0.46,0.426,0.391,0.35,0.302,0.46,0.363,0.347,0.389
NCI-H2405,0.758,0.713,0.701,0.501,0.745,0.809,0.586,0.479,1.02,1.13,1,0.654,0.385,0.384,0.35,0.362,0.35
NCI-H3122,0.407,0.314,0.295,0.179,0.978,0.893,0.936,0.555,0.192,0.185,0.205,0.164,0.413,0.4,0.406,0.417,0.422
PC-3 [JPC-3],0.889,0.828,0.789,0.705,0.905,0.789,0.681,0.553,1.28,1.13,1.1,0.635,0.47,0.5,0.496,0.515,0.504
PC-14,0.584,0.572,0.599,0.368,0.37,0.416,0.36,0.309,0.148,0.138,0.115,0.131,0.778,0.616,0.525,0.544,0.565
RERF-LC-KJ,0.507,0.464,0.408,0.374,0.902,1,0.86,0.794,0.469,0.506,0.452,0.449,0.402,0.44,0.427,0.41,0.379
SW 900,0.665,0.453,0.451,0.37,0.633,0.681,0.71,0.548,0.518,0.476,0.461,0.471,0.624,0.852,0.397,0.503,0.384
